Assay results from PubChem BioAssay (NCI).
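In this assay, cells in 96-well plates receive the compound at five concentrations for 48 hours. Endpoints are linearly interpolated between the surrounding concentrations. TGI: total growth inhibition.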

Assays:
Experiment in all cases: NCI tumour cell line growth inhibition, 48 h
LOX IMVI melanoma = system: LOX IMVI melanoma
NCI-H460 lung = system: NCI-H460 lung
IGROV1 ovarian = system: IGROV1 ovarian
OVCAR-8 ovarian = system: OVCAR-8 ovarian
K-562 leukemia = system: K-562 leukemia
786-0 renal = system: 786-0 renal
MDA-N = system: MDA-N
CCRF-CEM leukemia = system: CCRF-CEM leukemia
HOP-62 NSCLC = system: HOP-62 NSCLC
OVCAR-5 ovarian = system: OVCAR-5 ovarian
SF-268 CNS = system: SF-268 CNS
SNB-75 CNS = system: SNB-75 CNS
UACC-62 melanoma = system: UACC-62 melanoma
SN12C renal = system: SN12C renal
A549 NSCLC = system: A549 NSCLC
NCI/ADR-RES ovarian = system: NCI/ADR-RES ovarian
HL-60(TB) leukemia = system: HL-60(TB) leukemia
KM12 colon = system: KM12 colon
MOLT-4 leukemia = system: MOLT-4 leukemia
SR leukemia = system: SR leukemia
ACHN renal = system: ACHN renal
BT-549 breast = system: BT-549 breast
HOP-92 NSCLC = system: HOP-92 NSCLC
HS 578T breast = system: HS 578T breast
MDA-MB-231 breast = system: MDA-MB-231 breast
HT29 colon = system: HT29 colon
UACC-257 melanoma = system: UACC-257 melanoma
U251 CNS = system: U251 CNS
A498 renal = system: A498 renal
NCI-H522 lung = system: NCI-H522 lung
TK-10 renal = system: TK-10 renal
SK-MEL-28 melanoma = system: SK-MEL-28 melanoma
OVCAR-4 ovarian = system: OVCAR-4 ovarian
PC-3 prostate = system: PC-3 prostate
SK-OV-3 ovarian = system: SK-OV-3 ovarian
SF-539 CNS = system: SF-539 CNS
M14 melanoma = system: M14 melanoma
MDA-MB-435 = system: MDA-MB-435
HCT-116 colon = system: HCT-116 colon
T-47D breast = system: T-47D breast
EKVX NSCLC = system: EKVX NSCLC
RPMI-8226 leukemia = system: RPMI-8226 leukemia
DU-145 prostate = system: DU-145 prostate
NCI-H23 lung = system: NCI-H23 lung
SW-620 colon = system: SW-620 colon
MCF7 breast = system: MCF7 breast
SNB-19 CNS = system: SNB-19 CNS
CAKI-1 renal = system: CAKI-1 renal
RXF 393 renal = system: RXF 393 renal
OVCAR-3 ovarian = system: OVCAR-3 ovarian
SK-MEL-5 melanoma = system: SK-MEL-5 melanoma
MALME-3M melanoma = system: MALME-3M melanoma
SK-MEL-2 melanoma = system: SK-MEL-2 melanoma
NCI-H226 lung = system: NCI-H226 lung
SF-295 CNS = system: SF-295 CNS
HCT-15 colon = system: HCT-15 colon
COLO 205 colon = system: COLO 205 colon
UO-31 renal = system: UO-31 renal

CN1CCc2c(sc3ncn(N)c(=N)c23)C1
TGI (LOX IMVI melanoma): > 100 µM
TGI (NCI-H460 lung): > 100 µM
TGI (IGROV1 ovarian): > 100 µM
TGI (OVCAR-8 ovarian): > 100 µM
TGI (K-562 leukemia): > 100 µM
TGI (786-0 renal): > 100 µM
TGI (MDA-N): > 100 µM
TGI (CCRF-CEM leukemia): > 100 µM
TGI (HOP-62 NSCLC): > 100 µM
TGI (OVCAR-5 ovarian): > 100 µM
TGI (SF-268 CNS): > 100 µM
TGI (SNB-75 CNS): > 100 µM
TGI (UACC-62 melanoma): > 100 µM
TGI (SN12C renal): > 100 µM
TGI (A549 NSCLC): > 100 µM
TGI (NCI/ADR-RES ovarian): > 100 µM
TGI (HL-60(TB) leukemia): > 100 µM
TGI (KM12 colon): > 100 µM
TGI (MOLT-4 leukemia): > 100 µM
TGI (SR leukemia): > 100 µM
TGI (ACHN renal): > 100 µM
TGI (BT-549 breast): > 100 µM
TGI (HOP-92 NSCLC): > 100 µM
TGI (HS 578T breast): > 100 µM
TGI (MDA-MB-231 breast): > 100 µM
TGI (HT29 colon): > 100 µM
TGI (UACC-257 melanoma): > 100 µM
TGI (U251 CNS): > 100 µM
TGI (A498 renal): > 100 µM
TGI (NCI-H522 lung): > 100 µM
TGI (TK-10 renal): > 100 µM
TGI (SK-MEL-28 melanoma): > 100 µM
TGI (OVCAR-4 ovarian): > 100 µM
TGI (PC-3 prostate): > 100 µM
TGI (SK-OV-3 ovarian): > 100 µM
TGI (SF-539 CNS): > 100 µM
TGI (M14 melanoma): > 100 µM
TGI (MDA-MB-435): > 100 µM
TGI (HCT-116 colon): > 100 µM
TGI (T-47D breast): > 100 µM
TGI (EKVX NSCLC): > 100 µM
TGI (RPMI-8226 leukemia): > 100 µM
TGI (DU-145 prostate): > 100 µM
TGI (NCI-H23 lung): > 100 µM
TGI (SW-620 colon): > 100 µM
TGI (MCF7 breast): > 100 µM
TGI (SNB-19 CNS): > 100 µM
TGI (CAKI-1 renal): > 100 µM
TGI (RXF 393 renal): > 100 µM
TGI (OVCAR-3 ovarian): > 100 µM
TGI (SK-MEL-5 melanoma): > 100 µM
TGI (MALME-3M melanoma): > 100 µM
TGI (SK-MEL-2 melanoma): > 100 µM
TGI (NCI-H226 lung): > 100 µM
TGI (SF-295 CNS): > 100 µM
TGI (HCT-15 colon): > 100 µM

CC(C)c1cc(C(F)(F)F)nc(NNc2nc(C(C)C)cc(C(F)(F)F)n2)n1
TGI (NCI-H460 lung): > 100 µM
TGI (IGROV1 ovarian): > 100 µM
TGI (OVCAR-8 ovarian): > 100 µM
TGI (K-562 leukemia): > 100 µM
TGI (786-0 renal): > 100 µM
TGI (COLO 205 colon): > 100 µM
TGI (MDA-N): > 100 µM
TGI (CCRF-CEM leukemia): > 100 µM
TGI (HOP-62 NSCLC): 86.4 µM
TGI (OVCAR-5 ovarian): > 100 µM
TGI (SF-268 CNS): > 100 µM
TGI (SNB-75 CNS): 95.8 µM
TGI (UACC-62 melanoma): > 100 µM
TGI (SN12C renal): > 100 µM
TGI (A549 NSCLC): > 100 µM
TGI (NCI/ADR-RES ovarian): > 100 µM
TGI (HL-60(TB) leukemia): > 100 µM
TGI (KM12 colon): > 100 µM
TGI (MOLT-4 leukemia): > 100 µM
TGI (SR leukemia): > 100 µM
TGI (ACHN renal): > 100 µM
TGI (BT-549 breast): > 100 µM
TGI (HOP-92 NSCLC): > 100 µM
TGI (HS 578T breast): > 100 µM
TGI (MDA-MB-231 breast): > 100 µM
TGI (HT29 colon): > 100 µM
TGI (UACC-257 melanoma): > 100 µM
TGI (U251 CNS): > 100 µM
TGI (A498 renal): > 100 µM
TGI (NCI-H522 lung): > 100 µM
TGI (UO-31 renal): > 100 µM
TGI (TK-10 renal): 56.1 µM
TGI (SK-MEL-28 melanoma): > 100 µM
TGI (OVCAR-4 ovarian): > 100 µM
TGI (PC-3 prostate): > 100 µM
TGI (SK-OV-3 ovarian): > 100 µM
TGI (SF-539 CNS): > 100 µM
TGI (M14 melanoma): > 100 µM
TGI (MDA-MB-435): > 100 µM
TGI (HCT-116 colon): > 100 µM
TGI (T-47D breast): > 100 µM
TGI (EKVX NSCLC): > 100 µM
TGI (RPMI-8226 leukemia): > 100 µM
TGI (DU-145 prostate): > 100 µM
TGI (NCI-H23 lung): > 100 µM
TGI (SW-620 colon): > 100 µM
TGI (MCF7 breast): > 100 µM
TGI (SNB-19 CNS): > 100 µM
TGI (CAKI-1 renal): > 100 µM
TGI (RXF 393 renal): > 100 µM
TGI (OVCAR-3 ovarian): 85.5 µM
TGI (SK-MEL-5 melanoma): > 100 µM
TGI (MALME-3M melanoma): > 100 µM
TGI (SK-MEL-2 melanoma): > 100 µM
TGI (NCI-H226 lung): > 100 µM
TGI (SF-295 CNS): > 100 µM
TGI (HCT-15 colon): > 100 µM
